≈ marks a conversion by molar mass, not a printed value.

For the first series the following is noted: 20 °C.
In general, solubility refers to the dissolved amount per volume that the medium holds. A high value points to much dissolved substance. With `O=C1c2c(O)cccc2[C@H]([C@@H]2O[C@H](CO)[C@@H](O)[C@H](O)[C@H]2O)c2cc(CO)cc(O)c21`, the solubility stood at 19.8 mM (≈ 8.3 mg/mL).
The molecule `O=C1CC2CC[C@H]1C2` yielded a solubility of 17.5 mM (≈ 1.93 mg/mL).
Still for that read-out and setting: the value for `O=[N+]([O-])OCC(CO[N+](=O)[O-])O[N+](=O)[O-]` was 6.08 mM (≈ 1.38 mg/mL).

Still in this series, the particulars now being: 23 °C.
The molecule `Nc1ccc(N)cc1` gave a solubility of 342 mM (≈ 37 mg/mL).

The series is the same for the next values; noted with them: 24 °C.
As to `Nc1cccc([N+](=O)[O-])c1`, the solubility stood at 8.69 mM (≈ 1.2 mg/mL).

Staying with this series, now noted: 25 °C.
As for `C=CC=O`, the solubility turned out to be 3780 mM (≈ 212 mg/mL).
`O=C1NS(=O)(=O)c2ccccc21` registered a solubility of 21.8 mM (≈ 4 mg/mL).
`CC[C@H]1C[N@@]2CC[C@H]1C[C@H]2[C@H](O)c1ccnc2ccc(OC)cc12`: the solubility was found to be 0.888 mM (≈ 0.29 mg/mL).
In turn, `CCN(CC)C(=O)CCC(=O)O` showed a solubility of 161 mM (≈ 27.9 mg/mL).
Same read-out and setting: then `CC(=O)Oc1ccc2c3c1O[C@H]1[C@@H](OC(C)=O)C=C[C@H]4[C@@H](C2)N(C)CC[C@@]341`, with 1.61 mM (≈ 0.595 mg/mL); and `CCCCCCCCCCC(C(=O)O)C(=O)O`, with 0.102 mM (≈ 0.025 mg/mL).
`O=C(O)c1cccc(Cl)c1` had a solubility of 2.87 mM (≈ 0.45 mg/mL).
Consider `CN1C2CCC1CC(OC(=O)c1ccccc1)C2` (stereo not drawn), for which the solubility was found to be 6.93 mM (≈ 1.7 mg/mL).
Same read-out and setting: the value for `O=C1C[C@@H]2OCC=C3CN4CC[C@]56c7ccccc7N1[C@H]5[C@H]2[C@H]3C[C@H]46` was 0.478 mM (≈ 0.16 mg/mL); that for `O=C1c2cccc(S(=O)(=O)O)c2C(=O)c2c1cccc2S(=O)(=O)O` was 18100 mM (≈ 6660 mg/mL).
On the same count and under the same terms, the value for `O=Cc1ccccc1[N+](=O)[O-]` was 15.4 mM (≈ 2.32 mg/mL).
Still for that read-out and setting: the value for `O=Cc1cccc([N+](=O)[O-])c1` was 10.8 mM (≈ 1.63 mg/mL).
In the case of `O=C(O)c1ccccc1Cl`, the solubility was found to be 13.3 mM (≈ 2.09 mg/mL).
Same read-out and setting: then `O=C1c2cccc(S(=O)(=O)O)c2C(=O)c2cccc(S(=O)(=O)O)c21`, with 1810 mM (≈ 666 mg/mL); and `NC(N)=S`, with 1870 mM (≈ 142 mg/mL); and `CCN1C[C@]2(COC)[C@H](O)C[C@H](OC)[C@]34C1[C@H]([C@H](OC)[C@H]23)[C@]1(OC(C)=O)[C@H]2[C@@H](OC(=O)c3ccccc3)[C@](O)(C[C@H]24)[C@@H](OC)[C@@H]1O`, with 0.48 mM (≈ 0.31 mg/mL).
Still for that read-out and setting: then `NC(=O)c1ccccc1`, with 111 mM (≈ 13.5 mg/mL); and `Cc1cc(O)c2c(O)c3c(O)cccc3cc2c1`, with 0.874 mM (≈ 0.21 mg/mL).
